Data set [1] deals with T1, kinase domain protein of RC kinase (Homo sapiens, UniProt Q56UN5).
T1 sequence (Q56UN5 1061-1324 limits assumed): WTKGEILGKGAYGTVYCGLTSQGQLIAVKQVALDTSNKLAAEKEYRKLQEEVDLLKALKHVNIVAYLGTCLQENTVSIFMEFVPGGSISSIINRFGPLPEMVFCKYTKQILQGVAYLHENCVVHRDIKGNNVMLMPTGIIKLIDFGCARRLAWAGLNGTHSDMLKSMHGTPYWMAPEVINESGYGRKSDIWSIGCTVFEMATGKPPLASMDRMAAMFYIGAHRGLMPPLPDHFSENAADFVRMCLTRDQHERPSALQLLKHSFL
The data set can be described thus: Enzymatic assay for kinase inhibitory activity (Crebtide substrate, LANCE read-out). It is filed as biochemical. To be noted: compound at 1 μM. The procedure:
Solutions of a test compound, Crebtide (a substrate), a kinase, and ATP were prepared using 1×MAPK Buffer (50 mM HEPES, 1 mM EGTA, […], 10 mM MgCl2, 2 mM DTT, and 0.01% Tween 20).
To each well, the test compound (1 μL) was first added (in duplicate) to reach a final concentration of 1 μM or 1×IC50 of the compound. The kinase (5 μl) was then added to each well to reach a final concentration of […] for the kinase domain or […] for the full-length domain. Each plate included a positive and negative controls in duplicate wells. Crebtide (2.5 μL) was then added to each well in duplicate to reach a final concentration of 50 nM. If the full-length kinase was used, the plates were incubated for 45 min at room temperature before proceeding further. ATP (2.5 μL) was added to each well to reach a final concentration of 1 μM for the kinase domain and 3 μM for the full-length.
After the addition of ATP, the plates were incubated for 45 min at room temperature. During the incubation, an EDTA solution (40 mM) and anti-Crebtide ([…]) were prepared. Additionally, a detection buffer stock solution was diluted ten fold before use.
After the incubation, the anti-Crebtide (5 μL) and EDTA (5 μL) were added to each well to reach their final concentrations of […] and 10 mM, respectively. The plates were allowed to develop at room temperature for 45 min. The plates were then read at 665 nm and 615 nm using Perkin Elmer Lance machine.
The biological results of inhibition of the kinase domain protein of RC kinase are summarized in Tables 2 and 3, wherein A represents at least 50% inhibition of the RC kinase activity at 1 μM; B represents no greater than 50% but at least 20% inhibition of the RC kinase activity at 1 μM; C represents no greater than 20% but at least 5% inhibition of the RC kinase activity at 1 μM; and D represents no greater than 5% inhibition of the RC kinase activity at 1 μM.

As for `COc1cc(/C=N/c2[nH]nc(Nc3cccc(Cl)c3)c2C#N)ccc1OCc1cnc(Cl)s1` [Compound A60], the melting point lay within 210 to 220 °C. Moreover, the inhibition at 1 µM in data set [1] fell in the range of 5 to 20%.
For `N#Cc1c(Nc2cccc(Cl)c2)n[nH]c1/N=C/c1ccc(Cl)cc1O` [Compound A91], in that order: 283 to 284 °C and not above 5%.
The corresponding values for `N#Cc1c(Nc2ccc(Cl)cc2)n[nH]c1/N=C/c1cccc2ccccc12` [Compound A40] are 289 to 292 °C and not above 5%.
`N#Cc1c(Nc2ccccc2)n[nH]c1/N=C/c1ccc(O)cc1` [Compound A22]: the melting point was 241 to 245 °C. The inhibition at 1 µM in data set [1] is not above 5%.
`COc1cccc(O)c1/C=N/c1[nH]nc(Nc2ccccc2Cl)c1C(N)=O` [Compound B1] came in with a melting point of 238 to 246 °C. In addition, the inhibition at 1 µM in data set [1] is 5 to 20%.
The corresponding values for `COc1ccc(/C=N/c2[nH]nc(Nc3ccccc3)c2C(N)=O)cc1` [Compound B13] are 257 to 260 °C and 20 to 50%.
The corresponding values for `NC(=O)c1c(Nc2ccc(Cl)cc2)n[nH]c1/N=C/c1ccc([N+](=O)[O-])cc1` [Compound B27] are 291 to 293 °C and 5 to 20%.
The corresponding values for `CS(=O)(=O)N1CCC(/C=N/c2[nH]nc(Nc3cccc(Cl)c3)c2C#N)CC1` [Compound A80] are 102 to 105 °C and not above 5%.
`N#Cc1c(Nc2cccc(Cl)c2)n[nH]c1/N=C/c1ccc(F)cc1O` [Compound A98] came in with a melting point of 232 to 238 °C. Further, in data set [1], the inhibition at 1 µM is 20 to 50%.
For `N#Cc1c(Nc2cccc(Cl)c2)n[nH]c1/N=C/c1ccc(Oc2ccc(C(F)(F)F)cn2)cc1` [Compound A61], in that order: 264 to 268 °C and 5 to 20%.
With `NC(=O)c1c(Nc2ccc(Cl)cc2)n[nH]c1/N=C/c1ccccc1` [Compound B21], the melting point is 303 to 306 °C. The inhibition at 1 µM in data set [1] was 5 to 20%.
For `COc1cccc(/C=N/c2[nH]nc(Nc3cccc(Cl)c3)c2C(N)=O)c1O` [Compound B53], in that order: 271 to 274 °C and 5 to 20%.
`N#Cc1c(Nc2ccc(Cl)cc2)n[nH]c1/N=C/c1ccc(Cl)cc1` [Compound A35]: the melting point was 296 to 300 °C. Besides, the inhibition at 1 µM in data set [1] was not above 5%.
On to `COc1ccc(/C=N/c2[nH]nc(Nc3cccc(Cl)c3)c2C#N)cn1` [Compound A100], for which the melting point is 286 to 291 °C. Besides, the inhibition at 1 µM in data set [1] lay within 5 to 20%.
The corresponding values for `N#Cc1c(Nc2cccc(Cl)c2)n[nH]c1/N=C/C1CCCN1C(=O)OCc1ccccc1` (centres unmarked) [Compound A63] are 65 to 72 °C and 5 to 20%.
The corresponding values for `N#Cc1c(Nc2cccc(Cl)c2)n[nH]c1/N=C/c1ccc(Oc2ncccn2)cc1` [Compound A111] are 224 to 230 °C and 20 to 50%.
For `N#Cc1c(Nc2cccc(Cl)c2)n[nH]c1/N=C/c1c[nH]nc1-c1ccc(F)cc1` [Compound A1], the melting point is 127 to 132 °C. Also, in data set [1], the inhibition at 1 µM was not above 5%.
The corresponding values for `Cn1nc(CSc2ccccc2)c(/C=N/c2[nH]nc(Nc3cccc(Cl)c3)c2C#N)c1Cl` [Compound A62] are 194 to 202 °C and 5 to 20%.
The compound `COc1cccc(/C=N/c2[nH]nc(Nc3cccc(Cl)c3)c2C(N)=O)c1` [Compound B8] returned a melting point of 283 to 285 °C. In data set [1], the inhibition at 1 µM lay in the range of 20 to 50%.
Consider `COc1ccc(/C=N/c2[nH]nc(Nc3cccc(Cl)c3)c2C#N)cc1F` [Compound A93], for which the melting point lay within 217 to 220 °C. The inhibition at 1 µM in data set [1] fell in the range of 20 to 50%.
For `N#Cc1c(Nc2cccc(Cl)c2)n[nH]c1N=Cc1ccc(O)c([N+](=O)[O-])c1` [Compound A5, 3-((3-chlorophenyl)amino)-5-((4-hydroxy-3-nitrobenzylidene)amino)-1H-pyrazole-4-carbonitrile], in that order: 286 to 288 °C and 20 to 50%.
The corresponding values for `N#Cc1c(Nc2cccc(Cl)c2)n[nH]c1/N=C/c1c[nH]c2c(F)c(F)c(F)c(F)c12` [Compound A68] are 343 to 347 °C and 5 to 20%.
For the compound `N#Cc1c(Nc2cccc(Cl)c2)n[nH]c1/N=C/c1ccc(-n2cncn2)cc1` [Compound A87], the melting point is 284 to 288 °C. In data set [1], the inhibition at 1 µM was not above 5%.
`NC(=O)c1c(Nc2cccc(Cl)c2)n[nH]c1/N=C/c1ccc(Cl)cc1` [Compound B4, 5-((4-chlorobenzylidene)amino)-3-((3-chlorophenyl)amino)-1H-pyrazole-4-carboxamide] registered a melting point of 303 to 305 °C. Besides, the inhibition at 1 µM in data set [1] fell in the range of 5 to 20%.
Compound `NC(=O)c1c(Nc2cccc(Cl)c2)n[nH]c1/N=C/c1cccc2ccccc12` [Compound B15] displayed a melting point of 280 to 283 °C. Also, the inhibition at 1 µM in data set [1] fell in the range of 5 to 20%.
Consider `COc1ccccc1/C=N/c1[nH]nc(Nc2ccccc2)c1C#N` [Compound A26], for which the melting point lay within 202 to 206 °C. Further, the inhibition at 1 µM in data set [1] was in the range of 5 to 20%.
Consider `COc1ccc(/C=N/c2[nH]nc(Nc3ccccc3)c2C#N)cc1` [Compound A6], for which the “Activity (inhibition of the RC kinase activity)” value in data set [1] is “B (no greater than 50% but at least 20% inhibition of the RC kinase activity at 1 μM)”.
As for `NC(=O)c1c(Nc2ccc(Cl)cc2)n[nH]c1/N=C/c1ccc(C(F)(F)F)cc1` [Compound B28], the “Activity (inhibition of the RC kinase activity)” value in data set [1] was “D (no greater than 5% inhibition of the RC kinase activity at 1 μM)”.
In the case of `N#Cc1c(Nc2cc(Cl)cc(Cl)c2)n[nH]c1/N=C/c1ccc(O)cc1` [Compound A56], the inhibition at 1 µM in data set [1] was in the range of 5 to 20%.
The same measure, in the same setting: under `NC(=O)c1c(Nc2ccc([N+](=O)[O-])cc2)n[nH]c1/N=C/c1ccccc1` [Compound B39, (E)-5-(benzylideneamino)-3-((4-nitrophenyl)amino)-1H-pyrazole-4-carboxamide] stands 5 to 20%.
As for `N#Cc1c(Nc2ccccc2)n[nH]c1/N=C/c1ccc[nH]1` [Compound A28], in data set [1], the inhibition at 1 µM lay in the range of 5 to 20%.
On the same count and under the same terms, next, `NC(=O)c1c(Nc2cccc(Cl)c2)n[nH]c1/N=C/c1ccc(Cl)nc1` [Compound B59]: not above 5%.
Turning to `NC(=O)c1c(Nc2cccc(Cl)c2)n[nH]c1/N=C/c1cccc(OCCO)c1` [Compound B104, 3-((3-chlorophenyl)amino)-5-((3-(2-hydroxyethoxy)benzylidene)amino)-1H-pyrazole-4-carboxamide], the inhibition at 1 µM in data set [1] lay in the range of 20 to 50%.
On the same count and under the same terms, under `COc1ccc(F)cc1/C=N/c1[nH]nc(Nc2cccc(Cl)c2)c1C(N)=O` [Compound B58] stands 20 to 50%.
Turning to `NC(=O)c1c(Nc2cccc(Cl)c2)n[nH]c1/N=C/c1cccnc1Cl` [Compound B105], the “Activity (inhibition of the RC kinase activity)” value in data set [1] is recorded as “C (no greater than 20% but at least 5% inhibition of the RC kinase activity at 1 μM)”.
With `N#Cc1c(Nc2ccc(Cl)c(Cl)c2)n[nH]c1/N=C/c1ccc(O)cc1O` [Compound A59], in data set [1], the inhibition at 1 µM is not above 5%.
With `NC(=O)c1c(Nc2ccccc2)n[nH]c1/N=C/c1ccc(O)cc1` [Compound B10], the “Activity (inhibition of the RC kinase activity)” value in data set [1] is on record as “A (at least 50% inhibition of the RC kinase activity at 1 μM)”.
As for `COc1ccc(/C=N/c2[nH]nc(Nc3cccc(Cl)c3)c2C#N)c(C)c1C` [Compound A89], the “Activity (inhibition of the RC kinase activity)” value in data set [1] is listed as “C (no greater than 20% but at least 5% inhibition of the RC kinase activity at 1 μM)”.
`N#Cc1c(NC2CCCCC2)n[nH]c1/N=C/c1ccc(O)cc1` [Compound A49, 3-(cyclohexylamino)-5-((4-hydroxybenzylidene)amino)-1H-pyrazole-4-carbonitrile]: the inhibition at 1 µM in data set [1] is not above 5%.
In the case of `COc1ccc(Nc2n[nH]c(/N=C/c3ccccc3)c2C#N)cc1` [Compound A45], in data set [1], the “Activity (inhibition of the RC kinase activity)” value is on record as “D (no greater than 5% inhibition of the RC kinase activity at 1 μM)”.
Still for that read-out and setting: next, `COc1cc(/C=N/c2[nH]nc(Nc3cccc(Cl)c3)c2C#N)cc(O)c1OC` [Compound A85]: “C (no greater than 20% but at least 5% inhibition of the RC kinase activity at 1 μM)”.
For the compound `Cn1nc(C(F)(F)F)c(/C=N/c2[nH]nc(Nc3cccc(Cl)c3)c2C(N)=O)c1Cl` [Compound B81], the inhibition at 1 µM in data set [1] was not above 5%.
